Data from the pKa sets of Baltruschat and Czodrowski (2020).

SMILES	pKa (acidic group)	pKa (basic group)
Nc1c2[n-]cnc2nc[n+]1[O-]	13	–
Cn1cccn1	–	2.48
Cc1cnc(C)c(C)[nH+]1	–	-3.6
CCN(C)CCOCC[NH+](CC)CC	–	8.46
O=C([O-])c1nccc2ccccc12	–	4.97
Cc1ccc2nc3ccc(O)cc3nc2c1	7.2	–
CCc1n[nH]c(CC)n1	10.2	–
O=S(=O)(Nc1ccccc1)c1ccccc1	8.22	–
NC(=S)c1ccc(Br)cc1	12.5	–
COc1cc(OC)c2c(c1Cl)O[C@]1(C(=O)CC(=O)C[C@@H]1C)C2=O	4.49	–
NC(=O)C(N)CC(=O)O (stereo not drawn)	7.95	–
COc1ccc(N)cn1	–	4.24
Clc1cccc(Nc2ccccc2)c1	–	2.34
COc1c(Cl)cc(Cl)c([O-])c1C(=O)NC1CCN(C)CC1	–	9.12
S=C(Nc1ccc(Cl)cc1)c1cccc(Br)c1	10.1	–
CC(=O)N1CSC[C@H]1C(=O)O	2.94	–
Cn1c([O-])nc(=O)c2[nH]cnc21	11.7	–
COc1ccc(OC)c2c1nc(CO)n2C	–	5.24
Cc1cc(C(c2ccc(N)cc2)c2ccc(N)cc2)ccc1[NH3+]	–	3.8
Cc1ccc(N)c(N)c1	–	5
Nc1ccc[nH+]c1	–	-1.37
CC1CN(C)CC[NH+]1C (stereo not drawn)	–	3.93
Cc1cccc(C)c1NC(=S)c1ccccc1	10.8	–
CN(C)S(=O)(=O)c1ccc(NS(=O)(=O)c2ccc(N)cc2)cc1	6.23	–
CC(C)(C)c1cc(N)cc(C(C)(C)C)c1[N+](=O)[O-]	–	2.93

SMILES	pKa (acidic group)	pKa (basic group)
c1ccc(-c2ccc3nccn3n2)cc1	–	4.71
Brc1cn[nH]c1	12.7	–
Oc1ccccc1CNC1CCCCC1	–	8.67
Cc1ccc(N=C2C=CC(=N)C=C2)c(N)c1	–	4.2
CCOC(=O)c1c[nH+]c2cc([N+](=O)[O-])ccc2c1O	4.1	–
Nc1ccc(S(=O)(=O)Nc2cncnc2)cc1	6.62	1.9
N#Cc1cncc2ccccc12	–	2.04
CCOC(=O)C(Cc1ccccc1)C(C)=O (stereo not drawn)	11.8	–
O=C(O)Cc1cccc2ccccc12	4.24	–
CC(C)(C)CCC(=O)O	4.83	–
COC(=O)c1ncccn1	–	-0.68
CCc1ccc(O)c(CN(C)C)c1	–	8.51
Cc1ccncc1	–	6.15
Cc1cc(C)c(C)c(N)c1C	–	4.3
CC(C)(C)NC1CCCCC1	–	11.3
CCc1nc2cc3c(cc2[nH]1)CCCC3	–	6.64
C[C@@H](C=C(c1ccccc1)c1ccccc1)N(C)C	–	9.26
CCOC(=O)c1cnc2ccccc2c1[O-]	–	9.62
Cn1cncc1C[C@H](NC(=O)CCN)C(=O)[O-]	–	9.53
C=Cc1ccc(O)cc1	9.91	–
COc1ccccc1/C=C/C=N\O	11.3	–
O=[N+]([O-])c1cccc(C2NCCS2)c1 (stereo not drawn)	–	4.63
O=S1(=O)N=CNc2cccnc21	6.94	–
CC1=NCCc2c1[nH]c1ccccc21	14.9	8.99
CC1(C)CC(=O)C(Br)C(=O)C1	3.1	–

SMILES	pKa (acidic group)	pKa (basic group)
N[C@H]1C[C@@H]2CCCC[C@H]2C[C@@H]1N	–	9.97
Cn1c(-c2ccccn2)nc2ccccc21	–	4.47
[O-]c1cccnn1	–	10.5
O=c1cc(S(=O)(=O)[O-])[nH]c(=O)[nH]1	7.26	–
CC(=O)Nc1ccc(O)c([N+](=O)[O-])c1	6.78	–
CC[N+](O)(CC)CC	5.13	–
O=C1CCCC(=O)N1O	7.6	–
Cc1csc(C(=O)O)c1	3.66	–
Cn1c(=O)n(C)c2c(N)cccc21	–	3.06
O=C1[N-]C(=S)NC(=O)C1C1C=CCCC1 (stereo not drawn)	11.3	–
NNC(=O)[C@H](Cc1c[nH]c[nH+]1)NC(=O)OCc1ccccc1	–	2.5
CCCCCCN(CC(C)O)CC(C)O (stereo not drawn)	–	8.5
CC(C)CCOc1ccccc1/C=C/C(=O)O	4.85	–
Cn1ncc2c(NCc3ccccc3)ncnc21	–	3.66
N#CC(CCCCC(=O)O)c1ccccc1 (stereo not drawn)	4.75	–
COc1cccc(OC)c1-c1nc2ncccc2[nH]1	11.3	4.85
CNc1cnc2ccccc2n1	–	4.1
CCN1CC[C@]2(C)c3cc(O)ccc3C[C@H]1[C@H]2C	–	9.42
CC/C(N)=N/O	–	5.95
O=C1COC(=O)C1[N+](=O)[O-] (stereo not drawn)	1.68	–
CONC(=O)c1ccccc1	8.89	–
ONc1ccnc2ccccc12	6.76	–
C[NH+](C)CCCCNC(=O)/C=N/O	8.81	–
c1ccc(CN(Cc2ccccc2)Cc2ccccc2)cc1	–	7.44
O=C(O)[C@@H]1CCC[NH2+]1	1.94	–

SMILES	pKa (acidic group)	pKa (basic group)
CC(C)(C)NNC(C)(C)C	–	8.31
CC[NH+](CC)CCNc1cc(C)nc(N)n1	–	7.6
O=C(O)CCC(=O)c1ccc2ccccc2c1	4.96	–
Cc1cccc(NC=S)c1	11.6	–
Nc1ncnc2[nH]cnc12	9.86	4.26
C=Cc1ccc(C)nc1	–	5.67
CCCCCCCCCNCc1ccc(C)cc1	–	9.48
CCOCCn1c(N2CCC[NH+](CCCCn3cccn3)CC2)nc2ccccc21	–	4.9
CCN(CC)CCSC	–	9.62
Cc1cccc(C)c1NC(=O)CN1CCCCC1	–	7.6
Nc1c2[nH]cnc2nc[n+]1[O-]	9	2.6
O=[N+]([O-])c1cccc(-c2nnn[nH]2)c1	3.25	–
CC(C)NCC(=O)[O-]	–	10.1
Oc1ccc2[nH]ncc2c1	10.1	–
[O-]c1ncccn1	–	9.17
O=C(O)[C@@H](O)Cc1c[nH]c[nH+]1	2.99	–
N=C1CCCC1	–	8.95
N#Cc1ccc(O)cc1	7.89	–
Cc1ccc(NCO)cc1	–	3.42
Oc1cccc(I)c1	9.02	–
Cc1cc(O)[nH+]c(O)[nH+]1	1.2	–
Cc1c(N)ccc2c1-c1c(ccc3ccccc13)C2	–	4.49
Cc1ccc(NCCS)cc1	–	5.08
CCCCCn1ccnc1	–	7.12
CSC(C)C(=O)O (stereo not drawn)	3.76	–

SMILES	pKa (acidic group)	pKa (basic group)
Cc1ccccc1/C(N)=N/O	–	4.03
O=C(O)C1CCCc2ccccc2O1 (stereo not drawn)	3.63	–
Nc1ccnc2c([O-])cccc12	–	10.7
CCCCCCCCCCCCCCN(CCO)CC(C)O (stereo not drawn)	–	6.3
N/C(=N\O)C(N)Cc1ccccc1 (stereo not drawn)	–	7.06
C/C(=N\O)C(=O)c1ccccc1	9.25	–
CN(CCCN)CCC[NH3+]	–	9.27
O=c1ccc2cc(O)c(O)cc2o1	7.63	–
Cc1ccc(N)cc1C	–	4.94
N#CCC(N)c1ccccc1 (stereo not drawn)	–	6.7
CCCCCCCCN(CCO)CC(O)CC (stereo not drawn)	–	8.3
Cc1ccc(S(=O)(=O)NCCC(=O)[O-])cc1	11.2	–
CCN(CC)C/C(C)=N/[O-]	–	11
CCCCCCCCCc1c(O)n[nH]c1-c1ccccc1	10.6	–
FC(F)(F)c1cc(-c2ccccc2)nnc1NCCN1CCOCC1	–	6.75
C[C@H]1CC[C@H]2[C@H](C)CC[C@@H](C(=O)[O-])N2C1	–	10.8
C1CCC2(CC1)N1CCCN12 (stereo not drawn)	–	5.19
C[NH+](C)CC[SeH]	4.74	–
Nc1ccc2cc3ccc(N)cc3nc2c1	–	9.65
Cn1cnc(/N=N/O)n1	5.48	–
O=C(O)c1ccc(Oc2ccccc2)cc1	4.52	–
C#CCCC(=O)O	4.2	–
CC[NH2+]CCCC(=O)O	3.92	–
CCN(CC)CC1CO1 (stereo not drawn)	–	8.55
CCCCCCCCCC[NH2+]CCC(=O)O	3.57	–

SMILES	pKa (acidic group)	pKa (basic group)
O=C(N/[NH+]=C/c1ccccc1)c1ccncc1	–	1.82
CCN(CC)CCC(OC(=O)c1ccccc1)c1ccccc1 (stereo not drawn)	–	7.53
CCC(O)CN(CC)CCO (stereo not drawn)	–	9.1
NC(=O)c1c(CC(=O)O)n[nH]c1N	3.5	–
Nc1ccc(-c2ccc(/N=C/c3ccc(O)cc3)cc2)cc1	9.5	6.86
O=C([O-])C#CCN1CCOCC1	–	5.57
C=C(/C=C(/C)O)C(C)(C)C	11	–
O=[N+]([O-])c1ccc(S(=O)(=O)Nc2ccccc2)cc1	7.41	–
CC(C)c1ccc(Br)c(O)c(=O)c1	6.28	–
NC(=O)CS(=O)(=O)NC(N)=O	5.05	–
CCCc1c(-c2ccccc2)nn(-c2ccccc2)c1O	7	–
CS(=O)(=O)NC(N)=O	5.1	–
CN1CCN(C)c2cccc3cccc1c23	–	4.62
OCCCCc1ccccn1	–	5.83
NC(=O)/C=C(\O)c1cccnc1	–	8.01
[O-]/N=C1\CCCCC\C1=N/O	12.3	–
CNCC(C)C[NH2+]C	–	8.29
CCC(=O)C(c1ccccc1)(c1ccccc1)C(C)CN1CCOCC1 (stereo not drawn)	–	7.12
CC[NH+](CC)CCCC(C)Nc1cc(C)nc2cc(Cl)ccc12 (stereo not drawn)	–	8.52
Nc1ccc2[nH+]cccc2c1	–	1.63
Cc1cc([C@@H](N)CO)c(O)c([C@@H](N)CO)c1	–	9
COCc1nc2c(n1C)C(=O)c1ncnc([O-])c1C2=O	–	6.17
CCOCCn1c(CN2CCN(CCCCn3cccn3)CC2)nc2ccccc21	–	7.9
CCN(CC)Cc1c(C)cccc1O	–	8.65
c1ccc2scnc2c1	–	1.38

SMILES	pKa (acidic group)	pKa (basic group)
CN1CC[C@]23c4c5ccc(O)c4O[C@H]2[C@@H](O)CC[C@H]3[C@H]1C5	–	8.94
O=C(CCCCN1CCOCC1)c1ccccc1	–	7.5
Nc1ccc(Cc2ccc(N)cc2)cc1	–	5.1
COc1cc[n+](O)cc1	2.05	–
O=C1CC(=O)NC(=S)N1	4.15	–
COC(=O)CN	–	7.64
Nc1ccccc1C(=O)[O-]	–	4.87
S=C(Nc1ccccc1)c1cccc(Br)c1	10.5	–
Cc1cccc2c1C(=O)NC2=O	10.5	–
O=C(C[n+]1ccccc1)c1ccccc1	10.9	–
CC(C=C(c1cccs1)c1cccs1)N1CCCCC1 (stereo not drawn)	–	8.46
Cc1ccccc1NN=C(C#N)C#N	6.9	-0.84
OCCCCNCl	–	1.49
O=C([O-])c1ccc2ncccc2c1	–	4.82
CC(C)[NH2+]CC(=O)c1ccc(O)cc1	7.56	–
c1ccc(CC2CCCN2)cc1 (stereo not drawn)	–	10.3
O=C(O)/C=C/c1c[nH]c[nH+]1	3.5	–
O=C(O)C1=C/C=C\C=C/C=C\1	4.4	–
NCCCc1ccncc1	–	9.98
O=C(CCN1CCOCC1)c1cccc(Br)c1	–	6.8
Cc1cc(N[NH3+])nc2ccccc12	–	2.8
